16 molecules from US10150766B2, “P2X7 modulators” (Jansssen Pharmaceutica NV, priority 2014, dated 2018) can be followed below.

Where two headings read alike, the source gives them in different places. Bounds are passed on as bounds.

Experiment [1] concerns the target T1, P2X7 (Homo sapiens (Human), UniProt Q99572). In words: P2X7 antagonism in human peripheral blood mononuclear cells (PBMCs), IL-1β release (LPS + Bz-ATP, ELISA). The conditions noted are these: P2X7, 10 μM test compound, LPS 30 ng/ml + Bz-ATP 0.5 mM, read-out: PBMC @10 μM (% control). Format: cell-based. The protocol:
(§1) P2X7 Antagonism in Human Peripheral Blood Mononuclear Cells (PBMCs) and Human Whole Blood.
(§2) Human blood was collected using a blood donor program. PBMCs were isolated from blood using a Ficoll density gradient technique. Briefly, blood was laid on Ficoll solution and centrifuged at ROOM TEMPERATURE for 20 minutes at 2000 rpm. The buffy layer (between red blood cells and plasma) was carefully collected by aspiration, washed with PBS and centrifuged again at 1500 rpm for 15 minutes. The resulting cell pellet was washed and plated on 96 well-plates for experiments. For the Human Whole Blood experiments, 150 μl of human blood was plated on 96 well-plates. Lipopolysaccharide (LPS) (30 ng/ml) was added to each well and incubated for 1 hour. Test compounds were then added and incubated for 30 minutes. The P2X7 agonist, 2′(3′)-O-(4-benzoylbenzoyl) adenosine 5′-triphosphate (Bz-ATP) was then added at a final concentration of 0.5 mM (PBMC) or 1 mM (blood). Cells were incubated for an additional 1.5 hours. At that point, supernatant was collected and stored for IL-1β assay using manufacturer's protocol for enzyme-linked immunosorbant assay (ELISA). Data was expressed as percent control, where control is defined as the difference in IL-1β release in LPS+Bz-ATP samples and LPS only samples. Data was plotted as response (% control) versus concentration to generate IC50 values. […] Data are analyzed and graphed on Graphpad Prism 5. For analysis, each concentration point is averaged from triplicate values and the averaged values are plotted on Graphpad Prism. The IC50 for each compound is then uploaded into 3DX.
A general note: An ELISA detects its analyte on a solid surface through an enzyme-linked reagent.

In experiment [2] the target is T1, P2X7. In words: Radioligand binding ([3H]A-804598) to membranes of human P2X7-1321N1 cells. Particulars: human P2X7-1321N1 membranes, tracer tritiated A-804598, 1 hour at 4° C. The protocol: P2X7 Antagonism in Recombinant Human P2X7 Cells or Recombinant Rat P2X7 Cells:
human or rat P2X7-1321N1 cells were collected and frozen @ −80° C. On the day of the experiment, cell membrane preparations were made according to standard published methods. […] The compound can be prepared as described in the literature. […] The assay was terminated by filtration (GF/B filters pre-soaked with 0.3% PEI) and washed with washing buffer (Tris-HCl 50 mM). The IC50 generated in the binding assay was corrected for tracer concentration and affinity of the tracer to derive at the affinity (Ki) of the test compounds. The data are presented in Table 2 under the headings: P2X7 human Ki (μM) and P2X7 rat Ki (μM). Data are analyzed and graphed on Graphpad Prism 5. For analysis, each concentration point is averaged from triplicate values and the averaged values are plotted on Graphpad Prism.

A further experiment deals with rat P2X7 (Rattus norvegicus (Rat), UniProt Q64663). In words: P2X7 antagonism in recombinant rat P2X7 cells (column headed P2X7 Rat IC50). Format: binding. The procedure:
The in vitro affinity of the compounds of the invention for the rat and human P2X7 receptor was determined using a human peripheral blood mononuclear cells (PBMCs), a human whole blood assay, a Ca^2+ flux and radioligand binding assay in recombinant human P2X7 cells and recombinant rat P2X7 cells. […] The data represented in Tables 2 may represent a value from a single determination or when the experiment was run more than once, the data represents the average from between 2-12 runs.
P2X7 Antagonism in Recombinant Human P2X7 Cells or Recombinant Rat P2X7 Cells: […]

Experiment [3] addresses T1, P2X7. The experiment can be described thus: P2X7 antagonism in human whole blood, IL-1β release (LPS + Bz-ATP, ELISA). Format: cell-based. The conditions noted are these: LPS 30 ng/ml + Bz-ATP 1 mM. The protocol:
as §1, §2

The mark [4] stands for this setting: read-out: Human Whole Blood IC50.

T1 sequence (Q99572 whole entry): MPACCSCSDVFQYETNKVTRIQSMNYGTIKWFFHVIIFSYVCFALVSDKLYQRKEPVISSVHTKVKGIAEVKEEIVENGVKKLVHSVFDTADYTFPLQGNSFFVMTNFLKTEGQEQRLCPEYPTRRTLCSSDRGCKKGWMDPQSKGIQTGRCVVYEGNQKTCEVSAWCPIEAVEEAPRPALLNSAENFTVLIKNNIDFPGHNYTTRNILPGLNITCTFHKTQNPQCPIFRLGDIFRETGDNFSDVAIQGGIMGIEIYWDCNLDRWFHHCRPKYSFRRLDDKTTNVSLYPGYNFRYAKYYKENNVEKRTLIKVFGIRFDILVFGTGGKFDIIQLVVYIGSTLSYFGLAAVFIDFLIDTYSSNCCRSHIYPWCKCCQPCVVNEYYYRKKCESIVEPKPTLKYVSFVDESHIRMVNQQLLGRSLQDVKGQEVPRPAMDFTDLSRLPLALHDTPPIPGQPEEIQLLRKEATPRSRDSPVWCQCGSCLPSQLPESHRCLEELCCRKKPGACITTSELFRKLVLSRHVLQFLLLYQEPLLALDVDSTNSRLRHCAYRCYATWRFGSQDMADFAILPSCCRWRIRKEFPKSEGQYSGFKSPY
rat P2X7, sequence (Q64663 whole entry): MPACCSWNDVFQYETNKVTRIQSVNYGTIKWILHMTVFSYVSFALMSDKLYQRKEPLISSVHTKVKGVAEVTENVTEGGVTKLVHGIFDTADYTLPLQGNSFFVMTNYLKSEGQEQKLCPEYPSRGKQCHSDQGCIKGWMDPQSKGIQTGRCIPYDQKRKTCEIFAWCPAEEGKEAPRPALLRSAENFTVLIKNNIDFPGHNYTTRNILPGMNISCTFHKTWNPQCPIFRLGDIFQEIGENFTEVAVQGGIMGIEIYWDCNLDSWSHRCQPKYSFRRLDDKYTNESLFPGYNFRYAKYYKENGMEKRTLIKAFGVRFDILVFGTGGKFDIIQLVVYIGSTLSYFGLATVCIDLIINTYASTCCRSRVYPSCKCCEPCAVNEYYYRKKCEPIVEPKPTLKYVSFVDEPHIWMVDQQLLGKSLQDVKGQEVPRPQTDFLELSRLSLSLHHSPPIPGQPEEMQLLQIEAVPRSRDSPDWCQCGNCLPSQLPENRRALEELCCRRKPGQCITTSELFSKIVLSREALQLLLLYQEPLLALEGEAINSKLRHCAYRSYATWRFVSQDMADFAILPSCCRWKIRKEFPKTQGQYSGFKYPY

Take `Cc1nc(-c2ccn[nH]2)c2c(n1)C1CCCC(C2)N1C(=O)c1cccc(Cl)c1Cl` (stereo not shown) [Example 1, (2,3-dichlorophenyl)(2-methyl-4-(1H-pyrazol-5-yl)-5,6,7,8,9,10-hexahydro-6,10-epiminocycloocta[d]pyrimidin-11-yl)methanone]: the remaining activity at 10 µM at P2X7 [1] was 3.3%. Affinity on P2X7 [2] was put at a Ki of 31.6 nM. In addition, the IC50 was 101 nM on rat P2X7 and 0.027 µM on P2X7 [3] (Human Whole Blood IC50 (μM)).

`Cc1nc(-c2ccn[nH]2)c2c(n1)[C@@H]1CCC[C@H](C2)N1C(=O)c1ccc(Cl)c(F)c1Cl` [Example 10, (2,4-dichloro-3-fluorophenyl)((6R,10S)-2-methyl-4-(1H-pyrazol-5-yl)-5,6,7,8,9,10-hexahydro-6,10-epiminocycloocta[d]pyrimidin-11-yl)methanone]: the remaining activity at 10 µM on P2X7 [1] came to 22.4%. Besides, the affinity at P2X7 [2], expressed as Ki, was 631 nM. Moreover, the concentration for half-maximal inhibition (IC50) on P2X7 [3] (Human Whole Blood IC50 (μM)) was 0.459 µM.

In the case of `Cc1nc(-c2ccn[nH]2)c2c(n1)[C@@H]1CCC[C@H](C2)N1C(=O)c1cccc(Cl)c1Cl` [Example 11, (2,3-dichlorophenyl)((6R,10S)-2-methyl-4-(1H-pyrazol-5-yl)-5,6,7,8,9,10-hexahydro-6,10-epiminocycloocta[d]pyrimidin-11-yl)methanone], on P2X7 [1], the remaining activity at 10 µM amounted to 24.4%. The same molecule came in with a Ki at P2X7 [2] of 501 nM. Further, the IC50 at rat P2X7 was determined as 944 nM; at P2X7 [3] (Human Whole Blood IC50 (μM)), 0.302 µM.

With `Cc1nc(-c2ccn[nH]2)c2c(n1)[C@H]1CCC[C@@H](C2)N1C(=O)c1ccc(Cl)cc1Cl` [Example 20, (2,4-dichlorophenyl)((6S,10R)-2-methyl-4-(1H-pyrazol-5-yl)-5,6,7,8,9,10-hexahydro-6,10-epiminocycloocta[d]pyrimidin-11-yl)methanone], the remaining activity at 10 µM at P2X7 [1] was -9.9%. For the same molecule, the inhibitory constant (Ki) on P2X7 [2] worked out at 120 nM. Moreover, the IC50 on P2X7 [3] (Human Whole Blood IC50 (μM)) is 0.221 µM.

With `Cc1nc(-c2ccn[nH]2)c2c(n1)[C@H]1CCC[C@@H](C2)N1C(=O)c1cccc(C(F)(F)F)c1C` [Example 21, (2-methyl-3-(trifluoromethyl)phenyl)((6S,10R)-2-methyl-4-(1H-pyrazol-5-yl)-5,6,7,8,9,10-hexahydro-6,10-epiminocycloocta[d]pyrimidin-11-yl)methanone], the remaining activity at 10 µM at P2X7 [1] was -26.4%. Besides, the Ki at P2X7 [2] turned out to be 31.6 nM. Further, the results for the IC50 on rat P2X7 and at P2X7 [3] (Human Whole Blood IC50 (μM)) were 33.2 nM and 0.026 µM, respectively.

As to `Cc1nc(-c2ccn[nH]2)c2c(n1)[C@H]1CCC[C@@H](C2)N1C(=O)c1ccc(F)cc1Cl` [Example 22, (2-chloro-4-fluorophenyl)((6S,10R)-2-methyl-4-(1H-pyrazol-5-yl)-5,6,7,8,9,10-hexahydro-6,10-epiminocycloocta[d]pyrimidin-11-yl)methanone], the remaining activity at 10 µM at P2X7 [1] is 26.8%. Further, the Ki on P2X7 [2] stood at 316 nM. Besides, the IC50 at rat P2X7 is more than 10000 nM; at P2X7 [3] (setting [4]), 0.286 µM.

Turning to `Cc1nc(-c2ccn[nH]2)c2c(n1)[C@H]1CCC[C@@H](C2)N1C(=O)c1ccc(Cl)c(F)c1Cl` [Example 23, (2,4-dichloro-3-fluorophenyl)((6S,10R)-2-methyl-4-(1H-pyrazol-5-yl)-5,6,7,8,9,10-hexahydro-6,10-epiminocycloocta[d]pyrimidin-11-yl)methanone], the remaining activity at 10 µM on P2X7 [1] is -24.7%. In addition, on P2X7 [2], the inhibitory constant (Ki) stood at 31.6 nM. At P2X7 [3] (Human Whole Blood IC50 (μM)), the half-inhibitory concentration (IC50) amounted to 0.018 µM.

For `Cc1nc(-c2ccn[nH]2)c2c(n1)[C@H]1CCC[C@@H](C2)N1C(=O)c1ccnc(C(F)(F)F)c1Cl` [Example 24, (3-chloro-2-(trifluoromethyl)pyridin-4-yl)((6S,10R)-2-methyl-4-(1H-pyrazol-5-yl)-5,6,7,8,9,10-hexahydro-6,10-epiminocycloocta[d]pyrimidin-11-yl)methanone], on P2X7 [1], the remaining activity at 10 µM worked out at 2.4%. This molecule also registered a Ki at P2X7 [2] of 126 nM. The IC50 on rat P2X7 was determined as 19.2 nM; on P2X7 [3] (Human Whole Blood IC50 (μM)), 0.038 µM.

`Cc1nc(-c2ccn[nH]2)c2c(n1)[C@H]1CCC[C@@H](C2)N1C(=O)c1ccc(F)c(Cl)c1Cl` [Example 25, (2,3-dichloro-4-fluorophenyl)((6S,10R)-2-methyl-4-(1H-pyrazol-5-yl)-5,6,7,8,9,10-hexahydro-6,10-epiminocycloocta[d]pyrimidin-11-yl)methanone]: the remaining activity at 10 µM at P2X7 [1] is -10.2%. On P2X7 [2], this molecule displayed a Ki of 20 nM. Also, the IC50 at rat P2X7 worked out at 18.7 nM; on P2X7 [3] (Human Whole Blood IC50 (μM)), 0.025 µM.

Consider `Cc1nc(-c2ccn[nH]2)c2c(n1)[C@H]1CCC[C@@H](C2)N1C(=O)c1ccnc(C(F)(F)F)c1F` [Example 27, (3-fluoro-2-(trifluoromethyl)pyridin-4-yl)((6S,10R)-2-methyl-4-(1H-pyrazol-5-yl)-5,6,7,8,9,10-hexahydro-6,10-epiminocycloocta[d]pyrimidin-11-yl)methanone], for which, on P2X7 [1], the remaining activity at 10 µM was -10.2%. The same molecule yielded a Ki on P2X7 [2] of 151 nM. Besides, the IC50 at rat P2X7 is 132 nM; at P2X7 [3] (setting [4]), 0.172 µM.

Consider `Cc1nc(-c2cnn(C)c2)c2c(n1)[C@H]1CCC[C@@H](C2)N1C(=O)c1cccc(C(F)(F)F)c1F` [Example 34, (2-fluoro-3-(trifluoromethyl)phenyl)((6S,10R)-2-methyl-4-(1-methyl-1H-pyrazol-4-yl)-5,6,7,8,9,10-hexahydro-6,10-epiminocycloocta[d]pyrimidin-11-yl)methanone], for which, at P2X7 [1], the remaining activity at 10 µM was 3.3%. Also, the IC50 at rat P2X7 is more than 10000 nM; at P2X7 [3] (Human Whole Blood IC50 (μM)) it was 8.59 µM.

With `Cc1nc(-c2cnn(C)c2)c2c(n1)[C@H]1CCC[C@@H](C2)N1C(=O)c1ccc(Cl)c(F)c1Cl` [Example 35, (2,4-dichloro-3-fluorophenyl)((6S,10R)-2-methyl-4-(1-methyl-1H-pyrazol-4-yl)-5,6,7,8,9,10-hexahydro-6,10-epiminocycloocta[d]pyrimidin-11-yl)methanone], at P2X7 [1], the remaining activity at 10 µM came out at 9.1%. In addition, the IC50 is more than 10000 nM on rat P2X7 and 2.3 µM on P2X7 [3] (setting [4]).

With `Cc1nc(-c2cnn(C)c2)c2c(n1)[C@H]1CCC[C@@H](C2)N1C(=O)c1ccnc(C(F)(F)F)c1F` [Example 37, (3-fluoro-2-(trifluoromethyl)pyridin-4-yl)((6S,10R)-2-methyl-4-(1-methyl-1H-pyrazol-4-yl)-5,6,7,8,9,10-hexahydro-6,10-epiminocycloocta[d]pyrimidin-11-yl)methanone], the remaining activity at 10 µM at P2X7 [1] is 13.3%. For the same molecule, the IC50 on rat P2X7 is more than 10000 nM; at P2X7 [3] (setting [4]) it was 20.9 µM.

As for `Cc1nc(-c2cnn(C)c2)c2c(n1)[C@H]1CCC[C@@H](C2)N1C(=O)c1ccc(Cl)cc1F` [Example 38, (4-chloro-2-fluorophenyl)((6S,10R)-2-methyl-4-(1-methyl-1H-pyrazol-4-yl)-5,6,7,8,9,10-hexahydro-6,10-epiminocycloocta[d]pyrimidin-11-yl)methanone], the remaining activity at 10 µM on P2X7 [1] is 46.8%. For the same molecule, the IC50 at rat P2X7 is more than 10000 nM; on P2X7 [3] (setting [4]) it was more than 10 µM.

On to `Cc1nc(-c2cnn(C)c2)c2c(n1)[C@H]1CCC[C@@H](C2)N1C(=O)c1cccc(C(F)(F)F)c1C` [Example 39, (2-methyl-3-(trifluoromethyl)phenyl)((6S,10R)-2-methyl-4-(1-methyl-1H-pyrazol-4-yl)-5,6,7,8,9,10-hexahydro-6,10-epiminocycloocta[d]pyrimidin-11-yl)methanone], for which the remaining activity at 10 µM at P2X7 [1] was 1%. In addition, the IC50 on rat P2X7 was more than 10000 nM; on P2X7 [3] (Human Whole Blood IC50 (μM)) it was 1.09 µM.

As to `Cc1nc(-c2ccnn2C)c2c(n1)[C@H]1CCC[C@@H](C2)N1C(=O)c1ccnc(C(F)(F)F)c1Cl` [Example 60, (3-chloro-2-(trifluoromethyl)pyridin-4-yl)((6S,10R)-2-methyl-4-(1-methyl-1H-pyrazol-5-yl)-5,6,7,8,9,10-hexahydro-6,10-epiminocycloocta[d]pyrimidin-11-yl)methanone], the remaining activity at 10 µM at P2X7 [1] turned out to be 21.4%. Besides, the IC50 at rat P2X7 came out at 798 nM; at P2X7 [3] (Human Whole Blood IC50 (μM)) it was 1.98 µM.

One may read the Ki as the dissociation constant of the complex between target and ligand, obtained from inhibition or displacement. Higher therefore signals weaker binding. One may read the IC50 as the concentration at which inhibition is half-maximal.
